{"source": "paper PMC7395176", "about": "“Retromer stabilization results in neuroprotection in a model of Amyotrophic Lateral Sclerosis” (Nature Communications, 2020)", "key": {"[1]": {"test_system": "VPS26", "assay": "VPS26 / VPS26b levels in MNs and lumbar SC of treated G93A mice", "type": "in vivo", "conditions": "10 mg/kg, day 100"}, "[2]": {"test_system": "GM130", "assay": "Golgi apparatus (GM130) in MNs of treated G93A mice", "type": "in vivo", "conditions": "10 mg/kg, day 100", "excerpt": "Ubiquitinated inclusions accumulate in MNs from sALS and fALS patients, and in ALS mice[51]. We characterized poly-ubiquitinated proteins in lumbar SCs protein extracts by 10% denaturating PAGE. Protein extracts from Neuro2a cells treated with the proteasome inhibitor Bortezomib (BTZ), able to increase poly-ubiquitination, were used as an experimental control[52] (Fig. 7a). […] We next scored ubiquitin MFI levels in ventral horn MNs of G93A mice. […] (Fig. 7c and d). We next scored the Golgi apparatus in G93A mice by labeling lumbar sections for the cis-Golgi matrix protein GM130[54]. […] (Fig. 7e).\nSections from mice or glass covers containing cells were washed three times in PBS 1× (Lonza, 5 min each), and incubated in the following blocking mix: PBS 1×/FBS 10% (Invitrogen), BSA 1 mg/mL (Sigma–Aldrich), TritonX100 0.1% (Sigma Aldrich), for 1 h at room temperature. Antibodies were diluted in blocking mix and incubated at +4 °C overnight according manufacturer’s instructions. The following day, sections were rinsed in PBS and fluorescent secondary antibodies—i.e. never deriving from the species from which the primary antibodies are derived- (Alexafluor conjugated) diluted in blocking mix, were used according to the manufacturer’s instructions. Slides were incubated in Hoechst 33342 (Sigma–Aldrich) for nuclei counterstaining. […]"}}, "data": [{"compound": "NC(N)=N/N=C/c1cccc(/C=N/N=C(N)N)c1", "note": "[compound 2a, phenyl-1,3-bis-guanylhydrazone]", "values": [{"measurement": "VPS26b levels in lumbar SC extracts (WB)", "setting": "[1]", "result": "increase VPS35 and VPS26b levels"}, {"measurement": "reduction of GM130-covered areas in MNs (Golgi fragmentation)", "setting": "[2]", "result": "substantially reverted"}]}]}
